Test system: PC3-mice
Assay: Biodistribution in PC3-mice incl. blocking
Type: in vivo, mouse
Conditions: PC3-mice
Description: Male athymic Balb/C nude mice (6 weeks/20–25 g) were implanted with PC3 cells (3.5 × 10^6/100 µL PBS) into their right shoulder to develop tumors. The animals were used for biodistribution and PET/SPECT/CT imaging studies, once tumors reached 250–300 mm^3.
All mice were euthanized with intraperitoneal injection of pentobarbital (150 mg/kg), and selected organs were dissected, weighed, and measured for radioactivity using a gamma-counter. Results are expressed as % injected activity per gram tissue (% I.A./g), presented as mean ± SD (n = 3–4).

[1] = Blocking 4h (20 nmol unlabeled precursor)

`N#C[C@@H]1CC(F)(F)CN1C(=O)CNC(=O)c1ccnc2ccc(OCCCCNC(=O)CC[C@H](NC(=O)CCC(C(=O)O)N3CCN(CC(=O)[O-])CCN(CC(=O)[O-])CCN(CC(=O)[O-])CC3)C(=O)NCCCCOc3ccc4nccc(C(=O)NCC(=O)N5CC(F)(F)C[C@H]5C#N)c4c3)cc12.[177Lu+3]` (some centres unmarked) [[^177Lu]Lu-DOTAGA.Glu.(FAPI)2] was tested, and the “Uptake in Adrenal” value (4 h p.i.) was 3±0.2 %I.A./g, the “Uptake in Blood” value (4 h p.i.) was 2.1±0.1 %I.A./g and the “Uptake in Bone” value (4 h p.i.) was 4±0.3 %I.A./g. For the same compound, the “Uptake in Gallbladder” value (4 h p.i.) was 2.7±1.6 %I.A./g, the “Uptake in Heart” value (4 h p.i.) was 0.9±0.1 %I.A./g and the “Uptake in Intestine” value (4 h p.i.) was 0.8±0.3 %I.A./g. For the same compound, the “Uptake in Kidney” value (4 h p.i.) was 2.6±0.4 %I.A./g, the “Uptake in Liver” value (4 h p.i.) was 1.7±0.2 %I.A./g and the “Uptake in Lung” value (4 h p.i.) was 1.1±0.1 %I.A./g. For the same compound, the “Uptake in Muscle” value (4 h p.i.) was 1.4±0.3 %I.A./g, the “Uptake in Pancreas” value (4 h p.i.) was 1.9±0.1 %I.A./g and the “Uptake in Salivary glands” value (4 h p.i.) was 6.2±1.2 %I.A./g. The “Uptake in Spleen” value (4 h p.i.) was 0.9±0.1 %I.A./g, the “Uptake in Stomach” value (4 h p.i.) was 0.8±0.1 %I.A./g and the “Uptake in Tumor” value (4 h p.i.) was 16.2±2.5 %I.A./g. For the same compound, the “Uptake in Adrenal” value (24 h p.i.) was 1.9±0.2 %I.A./g, the “Uptake in Blood” value (24 h p.i.) was 0.9±0.2 %I.A./g and the “Uptake in Bone” value (24 h p.i.) was 2.5±0.1 %I.A./g. For the same compound, the “Uptake in Gallbladder” value (24 h p.i.) was 0.4±0.1 %I.A./g, the “Uptake in Heart” value (24 h p.i.) was 0.6±0.1 %I.A./g and the “Uptake in Intestine” value (24 h p.i.) was 0.4±0.1 %I.A./g. The “Uptake in Kidney” value (24 h p.i.) was 1.3±0.2 %I.A./g, the “Uptake in Liver” value (24 h p.i.) was 2.1±0.2 %I.A./g and the “Uptake in Lung” value (24 h p.i.) was 0.6±0.2 %I.A./g. The “Uptake in Muscle” value (24 h p.i.) was 0.8±0.1 %I.A./g, the “Uptake in Pancreas” value (24 h p.i.) was 0.9±0.7 %I.A./g and the “Uptake in Salivary glands” value (24 h p.i.) was 2.9±0.5 %I.A./g. The “Uptake in Spleen” value (24 h p.i.) was 0.7±0.2 %I.A./g, the “Uptake in Stomach” value (24 h p.i.) was 0.4±0.1 %I.A./g and the “Uptake in Tumor” value (24 h p.i.) was 7.3±0.6 %I.A./g. The “Uptake in Adrenal” value (48 h p.i.) was 1.3±0.3 %I.A./g, the “Uptake in Blood” value (48 h p.i.) was 0.2±0.03 %I.A./g and the “Uptake in Bone” value (48 h p.i.) was 1.3±0.1 %I.A./g. The “Uptake in Gallbladder” value (48 h p.i.) was 0.1±0.1 %I.A./g, the “Uptake in Heart” value (48 h p.i.) was 0.4±0.04 %I.A./g and the “Uptake in Intestine” value (48 h p.i.) was 0.2±0.01 %I.A./g. The “Uptake in Kidney” value (48 h p.i.) was 1±0.2 %I.A./g, the “Uptake in Liver” value (48 h p.i.) was 1.9±0.5 %I.A./g and the “Uptake in Lung” value (48 h p.i.) was 0.3±0.1 %I.A./g. For the same compound, the “Uptake in Muscle” value (48 h p.i.) was 0.5±0.1 %I.A./g, the “Uptake in Pancreas” value (48 h p.i.) was 0.6±0.1 %I.A./g and the “Uptake in Salivary glands” value (48 h p.i.) was 2.2±0.3 %I.A./g. The “Uptake in Spleen” value (48 h p.i.) was 0.5±0.04 %I.A./g, the “Uptake in Stomach” value (48 h p.i.) was 0.3±0.03 %I.A./g and the “Uptake in Tumor” value (48 h p.i.) was 5.1 ± 0.1 %I.A./g. For the same compound, the “Uptake in Adrenal” value (72 h p.i.) was 0.9±0.02 %I.A./g, the “Uptake in Blood” value (72 h p.i.) was 0.1±0.03 %I.A./g and the “Uptake in Bone” value (72 h p.i.) was 0.9±0.2 %I.A./g. The “Uptake in Gallbladder” value (72 h p.i.) was 0.1±0.1 %I.A./g, the “Uptake in Heart” value (72 h p.i.) was 0.3±0.1 %I.A./g and the “Uptake in Intestine” value (72 h p.i.) was 0.1±0.02 %I.A./g. For the same compound, the “Uptake in Kidney” value (72 h p.i.) was 0.6±0.1 %I.A./g, the “Uptake in Liver” value (72 h p.i.) was 1.4±0.4 %I.A./g and the “Uptake in Lung” value (72 h p.i.) was 0.1±0.02 %I.A./g. For the same compound, the “Uptake in Muscle” value (72 h p.i.) was 0.2±0.02 %I.A./g, the “Uptake in Pancreas” value (72 h p.i.) was 0.4±0.03 %I.A./g and the “Uptake in Salivary glands” value (72 h p.i.) was 0.7±0.04 %I.A./g. The “Uptake in Spleen” value (72 h p.i.) was 0.3±0.1 %I.A./g, the “Uptake in Stomach” value (72 h p.i.) was 0.1±0.02 %I.A./g and the “Uptake in Tumor” value (72 h p.i.) was 3.2±0.3 %I.A./g. The “Uptake in Adrenal” value (96 h p.i.) was 0.5±0.01 %I.A./g, the “Uptake in Blood” value (96 h p.i.) was 0.03±0 %I.A./g and the “Uptake in Bone” value (96 h p.i.) was 0.6±0.1 %I.A./g. The “Uptake in Gallbladder” value (96 h p.i.) was 0.1±0.02 %I.A./g, the “Uptake in Heart” value (96 h p.i.) was 0.2±0.02 %I.A./g and the “Uptake in Intestine” value (96 h p.i.) was 0.1±0.02 %I.A./g. The “Uptake in Kidney” value (96 h p.i.) was 0.4±0.04 %I.A./g, the “Uptake in Liver” value (96 h p.i.) was 1.3±0.1 %I.A./g and the “Uptake in Lung” value (96 h p.i.) was 0.1±0.02 %I.A./g. The “Uptake in Muscle” value (96 h p.i.) was 0.1±0.1 %I.A./g, the “Uptake in Pancreas” value (96 h p.i.) was 0.2±0.02 %I.A./g and the “Uptake in Salivary glands” value (96 h p.i.) was 0.7±0.1 %I.A./g. The “Uptake in Spleen” value (96 h p.i.) was 0.3±0.03 %I.A./g, the “Uptake in Stomach” value (96 h p.i.) was 0.1±0.01 %I.A./g and the “Uptake in Tumor” value (96 h p.i.) was 2.2±0.2 %I.A./g. The “Uptake in Adrenal” value [1] was 0.8±0.5 %I.A./g, the “Uptake in Blood” value [1] was 0.03±0.01 %I.A./g and the “Uptake in Bone” value [1] was 0.7±0.1 %I.A./g. For the same compound, the “Uptake in Gallbladder” value [1] was 0.2±0.2 %I.A./g, the “Uptake in Heart” value [1] was 0.2±0.04 %I.A./g and the “Uptake in Intestine” value [1] was 0.1±0.02 %I.A./g. The “Uptake in Kidney” value [1] was 0.5±0.1 %I.A./g, the “Uptake in Liver” value [1] was 1.2±0.5 %I.A./g and the “Uptake in Lung” value [1] was 0.1±0.04 %I.A./g. For the same compound, the “Uptake in Muscle” value [1] was 0.2±0.04 %I.A./g, the “Uptake in Pancreas” value [1] was 0.2±0.2 %I.A./g and the “Uptake in Salivary glands” value [1] was 0.6±0.2 %I.A./g. The “Uptake in Spleen” value [1] was 0.3±0.1 %I.A./g, the “Uptake in Stomach” value [1] was 0.09±0.02 %I.A./g and the “Uptake in Tumor” value [1] was 2.9±1.8 %I.A./g. For the same compound, the tumor uptake (at 1 h p.i. as printed) was ~ 15 %I.A./g and the “drop of tumor uptake (washed-out)” value (at 24 h vs 4 h p.i.) was ~ 50%.

Reference: PMC12860872, “Preclinical evaluation of DOTAGA.Glu.(FAPI)2 and DO3A.Glu.(FAPI)2 as theranostics with human dosimetry extrapolation to lutetium-177 and terbium-161 analogs” (European Journal of Nuclear Medicine and Molecular Imaging, 2025)
